Measurements published in patent publication US10350184B2, “Derivatives used in the treatment of muscle atrophy” (METABRAIN RESEARCH, priority 2015, dated 2019).

Key:
[1] = test system: myostatin gene expression; assay: Measurement of myostatin expression in C2Cl2 (qPCR); type: cell-based, Mouse; conditions: for inhibition of the expression of myostatin: C2Cl2 cells, Table 1, 0.5 μm; for percentage of myostatin gene expression in cells in contact with the molecules related to the expression in the control cells: concentration of the compound 0.5 μm, 6 h, active if less than or close to 70%
Description: C2Cl2 myoblastic cells (ATCC CRL-1772) are seeded in 24-well plates at the density of 30,000 cells per well and cultured in DMEM (Dulbecco's Modified Eagle Medium) medium containing glucose at 4.5 g/L and supplemented with fetal calf serum (10%) and antibiotics (penicillin and streptomycin). […] The cells are then placed in a glucose-depleted medium (DMEM containing 1 g/L of glucose) and devoid of serum in the presence of the test molecules or references (IGF-1 at a concentration of 100 ng/ml) for 6 h. At the end of the experiment, messenger RNAs (mRNAs) are extracted using standard phenol and chloroform methodology. Briefly, the cells are lysed in a solution of trizol (Sigma T9424) containing a strong acid and phenol. The mRNAs are separated from the proteins by the addition of chloroform followed by centrifugation. They are then precipitated in isopropanol and then suspended at the concentration of 1 μg/μL in ultra-pure water free of RNA and DNA. 1 μg of mRNA is then converted by retro-transcription into complementary DNA by the AMV enzyme in the presence a primer and a mixture of nucleotides according to the protocol given by the supplier (Applied Biosystems 4368814). […] QPCRs are performed on a 79001-IT Fast Real-Time PCR detection system (Applied Biosystems). The programming conditions are standard and consist of 1 cycle at 95° C. for 15 min, followed by 40 cycles at 95° C. for 15 sec and 60° C. for 1 min and finalized with a melt curve step at 60° C. and 95° C. The analyzed samples all contain 100 ng of cDNA, a qPCR buffer including the enzyme, the mixture of oligonucleotides and the intercalating SYBR green, and the pair of specific primers of the gene being studied, strategically chosen between two exon sequences and at a final concentration of 200 nM. Fluorescent probes bind to the double-stranded. DNA and fluoresce only once attached to the DNA. A fluorescence threshold is established by the program of the machine. When the amount of DNA allows the fluorescent probe to exceed this threshold, a PCR cycle number called “Ct” is obtained for “cycle threshold” or cycle threshold. It is this value that is the basis of the calculations to quantify the DNA in a relative fashion. A ratio R is set between the amount of the starting DNA in a sample and that of a control, which has not been treated (i.e., R=2^−(Ct Sample−Ct Control)) and this measurement will be compared to that of a household gene known to be unmodulated by the treatment (or R=2^−NRCt).
The primers used are recorded in the following table: […]
For the effects on myostatin expression, the results are expressed as a percentage of myostatin gene expression in cells in contact with the molecules related to the expression in the control cells. The product is supposed to be active if this ratio is less than or close to 70%, the average, value of IGF-1 found at the concentration of 100 ng/mL in this test, considered as reference.

[2] = test system: C2Cl2 cells; assay: Evaluation of muscle fiber diameter; type: cell-based; conditions: vs vehicle control
Description: The C2Cl2 myoblastic cells (ATCC CRL-1772) were seeded into glycerol-treated 8-well plates at a density of 10,000 cells per well and cultured in a DMEM medium containing glucose at 4.5 g/L and supplemented with fetal calf serum (10%) and antibiotics (penicillin and streptomycin).
The cells are then placed in a glucose-depleted medium (DMEM containing 1 g/L of glucose) and devoid of serum in the presence of the test molecules or references (IGF-1 at the concentration of 10 ng/mL or dexamethasone 10 nM) for 3 days. At the end of the culture, the cells are rinsed and fixed with 2.5% glutaraldehyde/0.1% Triton solution for 1 hour at room temperature. The cell layer is covered with DAPI (fluorescent labeling of the cell nucleus). After storage in the dark for 16 hours in the cold, the slides are observed under a fluorescence microscope (Carl Zeiss, AxioVert 200) and the images are analyzed using the Axiovision 4.1 software to measure the diameter of the fibers.
C2Cl2 cells are differentiated and treated with compound 1 for the last three days of differentiation.

[3] = test system: muscle cells; assay: Protein synthesis (via phosphorylation of S6K1) in muscle cells; type: cell-based; conditions: for Protein Synthesis (percentage increase in 56K phosphorylation in muscle cells): significant when greater than 120%
Description: The cells are counted and seeded at a density of […] cells per well in a 24-well plate in a DMEM medium containing glucose at 4.5 g/L and supplemented with fetal calf serum (10%) and antibiotics (penicillin and streptomycin). […] The cells are then placed in a medium without glucose or leucine (Krebs medium) for 1 hour at 37° C., and then incubated for 2 hours and 30 minutes in the presence of the test products or reference, (IGF-1, 100 ng/ml) in serum-free DMEM medium containing radiolabeled leucine 2.5 μCi/mL. At the end of the incubation, the supernatants are removed and the cells are lysed in a 0.1N NaOH solution for 30 min. The radioactivity is measured in the cell fraction and the total protein amount is determined by Lowry assay. Each condition is evaluated at a minimum of n=6; IGF-1, 100 ng/mL is our control to stimulate protein synthesis. The results are expressed in cpm/μg of proteins after 2.5 hours of incubation or as a percentage with respect to the control condition.
For the effects on protein synthesis, the results are expressed as a percentage increase in 56K phosphorylation in muscle cells. This percentage is considered significant when it is greater than 120%, the observed average value of IGF-1 at the concentration of 100 ng/mL in this test, considered as reference.

Molecule | inhibition of the expression of myostatin [1] | percentage of myostatin gene expression in cells in contact with the molecules related to the expression in the control cells [1] [%] | diameter of myotubes (muscle fiber diameter, FIG. 1) ([2]; IGF1 at 10 ng/ml, 3 days) | percentage of myostatin gene expression related to control cells, average value of reference ([1]; IGF-1 at 100 ng/mL) [%] | Protein synthesis, observed average value of reference ([3]; IGF-1 at 100 ng/mL) [%] | diameter of the myotubes (muscle fiber diameter, FIG. 1) ([2]; compound 1 at 10 μM, last three days of differentiation) | Protein Synthesis (percentage increase in 56K phosphorylation in muscle cells) ([3]; 0.5 μm) [%] | Protein Synthesis (percentage increase in 56K phosphorylation in muscle cells) ([3]; 5 μm) [%] | Protein Synthesis (percentage increase in 56K phosphorylation in muscle cells) ([3]; 50 μm) [%] | protein synthesis in muscle cells ([3]; concentration of 0.5 μM)
CCON=C(CCC(=O)OC(C)C)c1ccc(Cl)c(Cl)c1 [Compound 3, Isopropyl acid 4-(3,4-dichlorophenyl)-4-ethoxyimino-butanoate] | significantly inhibit | 41 |  |  |  |  |  |  |  | 
IGF-1: reference used to inhibit myostatin expression, stimulate protein synthesis and increase myotube diameter [reference compound] |  |  | significantly increases | 70 | 120 |  |  |  |  | 
CCON=C(CCC(=O)O)c1ccc(Cl)c(Cl)c1 [Compound 1, 4-(3,4-dichlorophenyl)-4-ethoxyimino-butanoic acid] | significantly inhibit | 71 |  |  |  | significantly increased | 134 | 142 | 151 | significantly increases
